# Test results as given in ChEMBL document CHEMBL1143740, “Conformationally locked thiosugars as potent alpha-mannosidase inhibitors: synthesis, biochemical and docking studies” (Bioorg Med Chem, 2007).
# pKi: −log10 of the molar value.
# Test: Inhibition of jack bean alpha-mannosidase
# Parameters: species or system Canavalia ensiformis
row,pKi,SMILES
1,6.46,O=S1(=O)C[C@@H]2O[C@H]1[C@@H](O)[C@H](O)[C@@H]2O
2,6.41,[O-][S+]1C[C@@H]2O[C@H]1[C@@H](O)[C@H](O)[C@@H]2O (stereo partly drawn)
3,5.86,"OC1[C@H](O)C2CSC(O2)[C@H]1O (single isomer, unassigned) [THIOLEVOMANNOSAN]"
